# “Also recorded” adds a separate entry of the source. Where two headings read alike, the source gives them in different places.
# How the values were obtained:
# [1] = molecular target: T1, human prostate (type 2) isozyme of 5α-reductase (Homo sapiens, UniProt P31213); assay: Slow-binding / fixed-time inhibition of human prostate (type 2) 5α-reductase by finasteride; format: biochemical; parameters: host or cells: native human prostate tissue or recombinant from a baculovirus expression system; considered interchangeable
# T1 sequence (P31213 1-254): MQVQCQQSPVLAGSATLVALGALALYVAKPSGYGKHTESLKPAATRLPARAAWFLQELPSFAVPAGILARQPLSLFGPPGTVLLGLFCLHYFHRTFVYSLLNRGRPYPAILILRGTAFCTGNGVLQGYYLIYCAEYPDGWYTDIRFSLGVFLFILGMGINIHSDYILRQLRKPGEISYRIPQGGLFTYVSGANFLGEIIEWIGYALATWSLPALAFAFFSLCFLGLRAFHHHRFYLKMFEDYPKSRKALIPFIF
# Description: (§1) When tissue extracts were the source of enzyme, the quenched reactions were clarified by centrifugation at 10,000×g before analysis.
# Where indicated, measurements were also conducted under conditions that have more traditionally been employed for this enzyme at pH 5.50 and 37° C.
# The enzyme was either used directly as a crude cell homogenate, or isolated as microsomal suspensions by differential centrifugation. In general, the tissue or cell pellet was combined with an equal volume of buffer and dispersed using a high shear force homogenizer (POLYTRON, high speed) for several minutes in an ice bath below 10° C. […] Saturating levels of cofactor were usually included to improve enzyme stability.
# (§2) The human isozymes were employed exclusively in this research. The native isozymes were from scalp (type 1 ) or prostate (type 2) tissues, and the recombinant forms were produced by a baculovirus expression system. Except where specified, all data refer to the prostate (type 2) isozyme, the primary target of finasteride. All of the experiments described in this application were also conducted with the recombinant type 1 isozyme, either in parallel or for confirmation.
# (§3) The data for slow-binding inhibition were analyzed as reviewed by Morrison et al., Adv. Enzymol. 61:201-301 (1988). The kinetic model is shown in the Description of the Invention. The time courses were fit to an integrated first-order rate equation (Equation 1), where A is product concentration, .nu.o is the initial velocity, .nu.s is the infinite-time velocity, and kobs is the first-order rate constant for progression of the enzyme between the two equilibrium states.
# vo =kcat (E)(S)/(Km (1+([…]))+S) Equation 2
# The rate constant for conversion of the weak complex to the high-affinity one, k2, was obtained by nonlinear regression to Equation 3, which also is a function of Ki.
# [(I/Ki)/(1+(S/Km)+(I/Ki)]Equation 3
# [2] = molecular target: T1, human prostate (type 2) isozyme of 5α-reductase; assay: Dissociation of enzyme-[^3 H]finasteride complex (release of radioactivity), type 2; format: binding; parameters: host or cells: native human prostate tissue or recombinant from a baculovirus expression system; considered interchangeable; conditions: 21.9 nM enzyme, 9.33 nM [^3 H]finasteride, 466 μM NADPH, pH 7.2, 37° C.
# Description: (§4) The concentrations of bound and free radioactivity were determined by ultrafiltration on 10,000 Da cutoff membranes (AMICON, Centricon-10), which were centrifuged several hours at 4° C.
# (§5) Nonspecific binding was assessed by reversing the order of addition, first blocking the […] with excess unlabeled inhibitor before addition of […].
# [3] = molecular target: T1, human prostate (type 2) isozyme of 5α-reductase; parameters: host or cells: native human prostate tissue or recombinant from a baculovirus expression system; considered interchangeable; conditions: cited from earlier work
# dihydrotestosterone = conditions: clinical trials, cited from earlier work
# [4] = molecular target: T2, human skin (type 1) isozyme of 5α-reductase (Homo sapiens, UniProt P18405); conditions: cited from earlier work
# T2 construct: made in house
# T2 sequence (P18405 1-259): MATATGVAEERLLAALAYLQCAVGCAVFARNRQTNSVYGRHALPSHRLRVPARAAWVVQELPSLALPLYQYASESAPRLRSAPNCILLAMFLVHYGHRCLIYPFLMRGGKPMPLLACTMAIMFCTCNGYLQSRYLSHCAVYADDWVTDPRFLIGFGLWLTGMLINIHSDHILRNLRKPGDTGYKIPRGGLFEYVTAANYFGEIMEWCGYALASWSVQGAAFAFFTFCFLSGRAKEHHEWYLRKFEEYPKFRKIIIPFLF
# [5] = molecular target: T2, human skin (type 1) isozyme of 5α-reductase; assay: Inhibition of human skin (type 1) 5α-reductase by finasteride; format: biochemical; conditions: type 1, from ratio of rate constants; read-out: steady-state Ki *
# Excerpt: as §1, §2, §3
# [6] = molecular target: T1, human prostate (type 2) isozyme of 5α-reductase; assay: Release of radiolabel on denaturation of enzyme-[^3 H]finasteride complex; format: binding; parameters: host or cells: native human prostate tissue or recombinant from a baculovirus expression system; considered interchangeable
# Description: as §4, §5
# [7] = molecular target: T1, human prostate (type 2) isozyme of 5α-reductase
# Description: The rate constant for dissociation of the enzyme-inhibitor complex was determined from the rate of release of radioactivity from enzyme-[^3 H]finasteride complex in the presence of 100-fold excess unlabeled finasteride. The enzyme-[^3 H]finasteride complex was formed in a solution containing excess enzyme: 21.9 nM enzyme (6 mg protein, ~0.04% pure, taken from the relatively homogeneous 100,000×g supernatant fraction). […] After 2 hours, exchange was initiated by making the solution 933 nM in unlabeled finasteride (including 1% ethanol). The solution was divided into aliquots (100 μL) which were incubated at 37° C.; each day a sample was removed and frozen away at -80° C. for future determination of bound and free inhibitor.
# To obtain sufficient transformed inhibitor for mass spectral analysis, a preparation of baculovirus-expressed enzyme was employed that consisted of all protein sedimenting between 1,000 to 100,000×g. […] The solution was then dialyzed overnight at 4° C. in 14,000 Da cutoff dialysis tubing (SPECTRAPOR 2) against 2 changes of 4L water containing 1 mM MOPS and 1 mM EDTA at pH 7.20.
structure (smiles),measurement,setting,value
"CC(C)(C)NC(=O)[C@H]1CC[C@H]2[C@@H]3CC[C@H]4NC(=O)C=C[C@]4(C)[C@H]3CC[C@]12C [Compound 1, 17β-(N-tert-butylcarbamoyl)-3-oxo-4-aza-5α-androst-1-ene-3-one]","halflife for dissociation (or turnover) of enzyme-inhibitor complex, predicted from association rate","[1]; 37° C., assuming Ki * <100 pM",> 6 h
same,halflife of conversion to high-affinity complex,[1]; assuming minimum Ki,< 30 s
same,suppression of activity at infinite time,[1]; lowest practical concentrations of finasteride (2 nM),nearly complete suppression of the activity
same,"Ki for the preliminary complex (theoretical line, minimum value)",[1]; type 2,100 nM
same,Ki,"[1]; type 2 enzyme, read-out: overall equilibrium constant Ki *",< 0.1 nM
same,inhibition on complex formation,[2],36%
same,Ki,"[3]; Faller et al., native human prostate enzyme, pH 7.0, read-out: dissociation constant Ki",> 150 nM
same,mode of inhibition,"[3]; fixed-time assays, previously shown",competitive with testosterone
same,Ki,"[3]; human prostate enzyme, as first perceived in fixed-time assays, read-out: Ki (simple, rapidly-reversible inhibitor)",26 nM
same,inhibition of type 2 isozyme,[3]; prostate,potently inhibited by finasteride
same,Ki,"[3]; read-out: Ki of essentially irreversible enzyme-inhibitor complex, Faller et al., human prostate isozyme",< 1 nM
same,time for dihydrotestosterone to return to basal levels after withdrawal,"dihydrotestosterone; Stoner, Gormley et al.",two
same,reduction of dihydrotestosterone levels,dihydrotestosterone; circulating concentrations comparable to Ki,reduced levels of dihydrotestosterone to values approaching those found in individuals genetically deficient in the prostate isozyme
same,second-order rate constant for formation of complex,"[4]; skin (type 1) isozyme, Tian et al.",4000 M⁻¹ s⁻¹
same,Ki,"[4]; skin (type 1) isozyme, Tian et al., read-out: Ki of preliminary weak complex",360 nM
same,inhibition of type 1 isozyme,"[4]; skin, listed as finasteride",not a significant inhibitor of human skin (type 1 ) isozyme at doses employed in the treatment of BPH; also recorded: relatively insensitive to finasteride
same,Ki,[5],< 0.2 nM
same,radiolabel released on denaturation,[6]; 7M guanidine hydrochloride,> 99%
same,radiolabel released on denaturation,[6]; 45% aqueous ethanol,> 77%
same,radiolabel released on denaturation,"[6]; boiling water bath, 2 minutes",> 96%
same,inhibition on complex formation,"[7]; 1.39 μM enzyme, 1.14 μM finasteride, 573 μM NADPH, pH 7.20, 45 min",73%
same,"[^3 H]-1,2-dihydrofinasteride as share of free tritium released from the [^3 H]finasteride-enzyme complex","[7]; off-rate experiment, one month",> 95%
same,untransformed [^3 H]finasteride released,"[7]; off-rate experiment, one month",no untransformed [^3 H]finasteride was detected

# From US5656613A, “Treatment of hyperandrogenic conditions” (Merck & Co., Inc., priority 1995, dated 1997)
